Key:
[1] = DPPH free radical scavenging method; assay type: biochemical; conditions: 100 μM DPPH, 30 min in dark
Protocol: A 100 μM solution of DPPH (as-is) was prepared in dark using absolute ethanol. A volume of 2 mL DPPH solution was taken out and mixed well with 2 mL of sample solution, and allowed to react in dark at room temperature for 30 min. The absorbance at 517 nm of the mixture was measured using a UV-visible spectrophotometer. Distilled water and absolute ethanol were served as blank controls instead of samples. The formula for calculating the DPPH free radical scavenging rate of the sample was as follows:
Wherein, A0 represents blank; A1 is the sample with ethanol; A2 is the sample with DPPH solution.

[2] = Solubility of quercetin in water; assay type: physicochemical
Protocol: Determination method: The quercetin concentration in the quercetin-loaded composite nanoparticle dispersion liquid was determined in the same manner as described in the examples, and calculation was done using the standard curve and dilution ratio. And the solubility of quercetin in water was calculated according to the following formula:
Solubility (μg/mL)=detected quercetin concentration×dilution factor

[3] = Release of quercetin during in vitro gastrointestinal digestion simulation; assay type: in vitro ADME; conditions: for release rate of quercetin: simulated gastric digestion
Protocol: Experimental method: The pH of 40 mL of freshly prepared free quercetin and quercetin composite nanoparticles dispersion was adjusted to 2.0 with 1 M HCl. After 10 min of preheating in a shaker (37° C., 100 rpm/min), 26.7 mg of pepsin was added and thoroughly mixed for 1 h to initiate simulated gastric digestion. After 1 h of digestion at 37° C., the pH of the pepsin digest was adjusted to 7.4 using 5 M NaOH. 200 mg of bile salts were added and mixed well in a shaker for 10 min. Then 13.6 mg of trypsin was added to start simulated intestinal digestion for 2 h. During the simulated gastrointestinal digestion process, 3 mL of digestion samples were collected at different digestion time (0, 30, 60, 90, 120, 150 and 180 min), and the enzyme was immediately inactivated with liquid nitrogen to terminate the reaction. The content of quercetin was determined, and the release rate (%) of quercetin was calculated according to the following formula: […]

[4] = Effect of temperature on stability of quercetin (retention rate); assay type: physicochemical; conditions: water bath 60, 75 and 90° C. for 30 min
Protocol: Experimental method: The newly prepared free quercetin and quercetin-loaded composite nanoparticle dispersions were placed into glass-sealed bottles and heated in a water bath at 60, 75 and 90° C. for 30 min, respectively. It was then immediately cooled to room temperature at 25° C., and the amount of quercetin remaining in the sample was determined. The retention rate (%) of quercetin was calculated according to the following formula: […]

[5] = Effect of light (UV 253.7 nm) on stability of quercetin (retention rate); assay type: physicochemical; conditions: after 210 min of ultraviolet light irradiation
Protocol: Experimental method: The freshly prepared free quercetin and quercetin-loaded composite nanoparticle dispersions were taken into transparent glass bottles in equal volume. It was then placed in a light cabinet of 0.24 m^3 and exposed to light with a wavelength of 253.7 nm, which was generated by a UV lamp with a power of 20 W. After exposure to light for 0, 30, 60, 90, 150, and 210 min, the stability of quercetin in different samples was studied, the residual quercetin content in the samples was determined, and the retention rate of quercetin (%) was calculated according to the following formula: […]

## O=c1c(O)c(-c2ccc(O)c(O)c2)oc2cc(O)cc(O)c12 [quercetin]
[1]
  DPPH free radical scavenging rate: 94.52%
[2]
  solubility of quercetin in water: 7.05 µg/mL
[3]; after subsequent simulated intestinal digestion
  quercetin released in the digestive juice: 90.09%
[3]; 60 min
  release rate of quercetin: 64.06%
[3]; first 30 min
  release rate of quercetin: 42.36%
[4]
  thermal stability of quercetin: poor thermal stability
[5]
  retention rate of quercetin: 60.08%
